Target: cAMP and cAMP-inhibited cGMP 3',5'-cyclic phosphodiesterase 10A (Homo sapiens, UniProt Q9Y233)
Assay: Fluorescence Polarization Assay: In a typical experiment the PDE10 inhibitory activity of the compounds of the present invention was determined in accordance with the following experimental method. PDE10A2 was amplified from human fetal brain cDNA (Clontech, Mountain View, Calif.) using a forward primer corresponding to nucleotides 56-77 of human PDE10A2 (Accession No. AF127480, Genbank Identifier 4894716), containing a Kozak consensus sequence, and a reverse primer corresponding to nucleotides 2406-2413 of human PDE10A2 (Accession No. AF127480, Genbank Identifier 4894716). Amplification with Easy-A polymerase (Stratagene, La Jolla, Calif.) was 95° C. for 2 minutes followed by thirty three cycles of 95° C. for 40 seconds, 55° C. for 30 seconds, and 72° C. for 2 minutes 48 seconds. Final extension was 72° C. for 7 minutes. The PCR product was TA cloned into pcDNA3.2-TOPO (Invitrogen, Carlsbad, Calif.) according to standard protocol. AD293 cells with 70-80% confluency were transiently transfected with human PDE10A2.

Chain of cAMP and cAMP-inhibited cGMP 3',5'-cyclic phosphodiesterase 10A (Q9Y233 whole entry): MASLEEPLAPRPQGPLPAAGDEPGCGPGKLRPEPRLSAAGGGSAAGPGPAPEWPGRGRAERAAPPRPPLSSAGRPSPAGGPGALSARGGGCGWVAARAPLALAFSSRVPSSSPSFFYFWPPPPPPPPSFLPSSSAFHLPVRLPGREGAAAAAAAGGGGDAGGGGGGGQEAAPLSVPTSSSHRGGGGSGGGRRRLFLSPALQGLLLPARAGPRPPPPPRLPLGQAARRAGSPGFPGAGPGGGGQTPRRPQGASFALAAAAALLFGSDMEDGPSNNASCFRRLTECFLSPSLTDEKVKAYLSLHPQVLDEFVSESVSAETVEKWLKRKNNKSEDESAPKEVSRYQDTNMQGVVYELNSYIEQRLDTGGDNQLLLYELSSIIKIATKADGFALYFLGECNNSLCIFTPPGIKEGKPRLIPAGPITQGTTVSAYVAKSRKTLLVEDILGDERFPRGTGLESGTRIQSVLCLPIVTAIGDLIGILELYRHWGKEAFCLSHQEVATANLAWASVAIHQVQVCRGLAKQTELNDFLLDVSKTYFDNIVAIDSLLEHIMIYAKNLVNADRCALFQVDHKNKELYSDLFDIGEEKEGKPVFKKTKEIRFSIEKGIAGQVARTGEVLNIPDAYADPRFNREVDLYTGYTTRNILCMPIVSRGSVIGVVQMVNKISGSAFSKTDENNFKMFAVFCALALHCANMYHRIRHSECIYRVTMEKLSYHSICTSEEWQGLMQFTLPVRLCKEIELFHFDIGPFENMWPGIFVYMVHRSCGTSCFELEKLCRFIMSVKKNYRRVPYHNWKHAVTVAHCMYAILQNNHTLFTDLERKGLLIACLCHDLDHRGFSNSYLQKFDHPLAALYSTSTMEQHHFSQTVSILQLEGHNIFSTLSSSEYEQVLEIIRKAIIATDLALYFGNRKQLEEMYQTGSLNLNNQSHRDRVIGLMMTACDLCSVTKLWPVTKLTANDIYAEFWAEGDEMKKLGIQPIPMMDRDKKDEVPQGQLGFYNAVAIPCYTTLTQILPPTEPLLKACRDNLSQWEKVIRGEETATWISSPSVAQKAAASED

Ki [nM] | Structure (SMILES)
14.2 | Cc1nc(C2CC2c2nc3ccc(F)cc3[nH]2)cc(-n2nc(C)nc2C)n1 (configuration not stated)
3.3 | COc1ccc(COc2cc(-n3nc(C)nc3Cc3ccc(OC)c(OC)c3)nc(C)n2)nc1

From ChEMBL document CHEMBL3886390, “Triazolyl PDE10 inhibitors” (2015)
